From patent publication EP0277611A2, “Alkyl-substituted N-benzopyranyl lactames, process for their preparation, their use and pharmaceutical preparations on the basis of these compounds” (HOECHST AKTIENGESELLSCHAFT, priority 1987, dated 1988) come the findings set out here.

Experiment [1] concerns Meerschweinchen-Ureteren. Description: Influence on KCl-induced rhythmic contractions of isolated guinea pig ureters in vitro. The class given is cell-based. Particulars: 10⁻⁷ mol/l test substance, KCl 4 x 10⁻² mol/l, mean ± SEM; for inhibition at 0.1 µM: Cavia porcellus. From the text: Beeinflussung der KCl-induzierten rhythmischen Kontraktionen an Meerschweinchen-Ureteren in vitro
Männliche Meerschweinchen wurden durch Nackenschlag und Entbluten aus den Carotiden getötet. Die beiden Ureteren wurden sofort entnommen, wobei der Bereich nahe dem Nierenkelch wegen der dort vorhandenen Schrittmacher-Aktivität gemieden wurde. 2 cm lange Stücke wurden zunächst in einer Petrischale, die Tyrode-Lösung enthielt, von Bindegewebe befreit und dann jeweils mit einer Vorspannung von 4,9 mN (=0,5 p) in ein 25 ml-Organbad (Fa. Rhema Labortechnik, Hofheim) gehängt. Das Organbad enthielt eine auf 37° gehaltene und mit Carbogen (95 % O₂, 5 % CO₂) durchperlte Tyrodelösung mit folgender Zusammensetzung (mmol/l): NaCl 137, KCl 2,68, MgSO₄ 1,05, CaCl₂ 1,8, NaH₂PO₄ 0,41, NaHCO₃ 11,9, Glucose 5,55. Die Kontraktionen wurden isometrisch gemessen unter Verwendung von Gould/Statham UC2 Gebern. Nach einer Äquiilibrierungszeit von mindestens 15 Minuten wurde KCl in das Organbad zugegeben, wobei eine Konzentration von 4 x 10⁻² mol/l erreicht wurde. Der Agonist wurde 2 Minuten im Bad belassen, wobei phasische Kontraktionen auftraten, ohne einen nennenswerten Anstieg der Grundspannung zu bewirken.
Danach wurde 1 Minute ausgespült, woraufhin die rhythmischen Kontraktionen sofort aufhörten. Nach einem zweiten Durchgang von Agonistgabe und Spülvorgang wurde die Prüfsubstanz (Benzopyran-Derivat) in das Organbad zugegeben (in Form einer Lösung in 0,1 ml Ethanol, die Endkonzentrationen betrugen in allen Fällen 10⁻⁷ mol/l) und eine Einwirkungszeit von einer Minute abgewartet, bevor KCl zugesetzt wurde. An den folgenden Spülvorgang schlossen sich zwei abschließende Agonistgabe/Spülgänge an. Von den jeweils zweiminütigen Perioden unter KCl-Einwirkung wurden folgende Parameter bestimmt: 1. mittlere Kontraktionskraft, 2. Frequenz der Kontraktionen und 3. Produkt aus mittlerer Kontraktionskraft und Frequenz. Ausschlußkriterien waren mittlere Kontraktionskräfte unter 4 mN oder Frequenzen unter 2/min bei mehr als einer der vier Perioden, bei denen nur der Agonist KCl im Bad vorhanden war. Ausgewertet wurde die prozentuale Hemmung unter Prüfsubstanz im Vergleich zum gemittelten Wert aus den beiden Vorläufen.
Neben dem arithmetischen Mittelwert (x) wurde der Standardfehler des Mittelwerts (SEM) errechnet.

For experiment [2], the system named is arteriellen Blutdruck. Description: Effect on arterial blood pressure in anaesthetised normotensive rats (ED25 from minima of blood pressure curves). The class given is in vivo, männlichen Sprague-Dawley Ratten. The conditions noted are these: Rattus norvegicus, anaesthetised (Nembutal 70 mg/kg i.p.) normotensive rats, from minimum of blood pressure curve, read-out: ED₂₅. On the procedure:
Der Einfluß der Verbindungen auf den arteriellen Blutdruck wurde an narkotisierten normotensiven männlichen Sprague-Dawley Ratten untersucht. Als Betäubungsmittel wurde Nembutal® in einer Dosis von 70 mg/kg i.p. verwendet. Die Blutdruckmessung erfolgte mittels Katheter in der Arteria carotis mit einem Druckwandler (Statham P 23 Db). Für die i.v. Applikation wurden die Substanzen in Dimethylsulfoxid gelöst und mit Wasser verdünnt. Die Konzentration der Stammlösung war 1mg/ml, wobei die Lösung 15 % Dimethylsulfoxid enthielt. Anteile dieser Stammlösung wurden für die Injektion jeweils frisch mit Wasser verdünnt.
Es kamen Konzentrationen von 50 (100), 30 (30) und 10 (10) µg/ml für die i.v. Applikation, 100 (100), 50 (60) und 30 (30) µg/ml für die i.d. Applikation zur Anwendung. Die angegebenen Zahlen beziehen sich dabei auf das Experiment a), die in Klammern angegebenen Zahlen auf Experiment b).
Die Blutdruckmessung wurde nach 0; 0,2; 0,4; 1; 2; 3; 10; 15 und 30 min. nach der i.v. Applikation sowie nach 0; 1; 3; 5; 10; 15; 20; 30; 40; 50 und 60 min. nach der i.d. Applikation vorgenommen. Die ED₂₅ Werte wurden aus dem Minima der jeweiligen Blutdruckkurven bestimmt. • a) (±)-(3R*, 4S*, 5ʹS*)-6-Cyano-3,4-dihydro-2,2-dimethyl-4-(2ʹ-oxo-5ʹ-methyl-1ʹ-pyrrolidinyl)-2H-benzo[b]pyran-3-ol (Verbindung aus Beispiel 1): ED₂₅= 19 µg/kg (i.v.) ED₂₅=42 µg/kg (i.d.) • b) (±)-6-Cyano-3,4-dihydro-2,2-dimethyl-trans-4-(2-oxo-1-pyrrolidinyl-2H-benzo[b]pyran-3-ol (Beispiel aus J. Med. Chem. 1986, 29, 2194-2201) ED₂₅= 42 µg/kg (i.v.) ED₂₅= 82 µg/kg (i.d.)

Where [3] appears, read: percent inhibition of product of mean contraction force and frequency, read-out: k·v [%].
Setting [4] is: percent inhibition vs mean of the two pre-runs, read-out: Frequenz v [%].
Where [5] appears, read: percent inhibition vs mean of the two pre-runs, read-out: mittlere Kontraktionskraft k [%].
[6] abbreviates: percent inhibition vs mean of the two pre-runs, 0.1 µM.

Like-named read-outs stand apart in the source and are kept apart here.

For `CC1(C)Oc2ccc(C#N)cc2C(N2CCCC2=O)C1O` (racemic) [(±)-6-Cyano-3,4-dihydro-2,2-dimethyl-trans-4-(2-oxo-1-pyrrolidinyl-2H-benzo[b]pyran-3-ol, reference compound], the inhibition at 0.1 µM is 61 ± 7% in experiment [1] (setting [3]), 58 ± 5% in experiment [1] (setting [4]) and 8 ± 8% in experiment [1] (setting [5]). The ED25 in experiment [2] (iv) was found to be 0.042 mg/kg; in experiment [2] (i.d.), 0.082 mg/kg.

Take `C[C@@H]1CCC(=O)N1[C@H]1c2cc(C#N)ccc2OC(C)(C)[C@@H]1O` [(-)-(3R, 4S, 5ʹR)-6-Cyano-3,4-dihydro-2,2-dimethyl-4-(2ʹ-oxo-5ʹ-methyl-1ʹ-pyrrolidinyl)-2H-benzo[b]pyran-3-ol]: the inhibition at 0.1 µM came to 96 ± 2% in experiment [1] (setting [3]), 89 ± 4% in experiment [1] (setting [4]) and 75 ± 8% in experiment [1] (setting [5]).

For the molecule `C[C@@H]1CCC(=O)N1[C@H]1c2cc(C#N)ccc2OC(C)(C)[C@@H]1O` (racemic) [±)-(3R^*,4S^*,5'R^*)-6-Cyano-3,4-dihydro-2,2-dimethyl-4-(2'-] [(3R*, 4S*, 5ʹR*)-6-Cyano-3,4-dihydro-2,2-dimethyl-4-[2ʹ-oxo-5ʹ-methyl-1ʹ-pyrrolidinyl)-2H-benzo[b]pyran-3-ol], in experiment [1] (percent inhibition of product of mean contraction force and frequency, 0.1 µM), the “k·v [%]” value stood at 96 ± 1%. Further, in experiment [1] (setting [6]), the “Frequenz v [%]” value is listed as 86 ± 4% and the “mittlere Kontraktionskraft k [%]” value is recorded as 69 ± 11%.

As to `C[C@H]1CCC(=O)N1[C@H]1c2cc(C#N)ccc2OC(C)(C)[C@@H]1O` (racemic) [(3R*, 4S*, 5ʹS*)-6-Cyano-3,4-dihydro-2,2-dimethyl-4-[2ʹ-oxo-5ʹ-methyl-1ʹ-pyrrolidinyl]-2H-benzo[b]pyran-3-ol], the ED25 in experiment [2] (iv) was 0.019 mg/kg; in experiment [2] (i.d.), 0.042 mg/kg.
